Source: patent US20250122174A1 (Shenzhen Yuanli Shenwan Innovative Medicine Co., Ltd., priority 2022, published 2025)

Target: HPK1 (Homo sapiens (Human), UniProt Q92918)
Assay: HPK1 Inhibition Assay (ADP-Glo kinase assay)
Format: biochemical
Conditions: ATP 10 μM
Summary of the method: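 ADP-Glo luminescence read-out after 1 h room-temperature kinase reaction with 10 μM ATP and 0.1 μg/ml MBP. Recombinant human HPK1 at 7.5 ng/μl; buffer 40 mM Tris pH 7.5, 20 mM MgCl2. Compounds serially diluted 5-fold over 10 points from 10 mM DMSO stock.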

Chain of HPK1 (Q92918 1-346 limits assumed): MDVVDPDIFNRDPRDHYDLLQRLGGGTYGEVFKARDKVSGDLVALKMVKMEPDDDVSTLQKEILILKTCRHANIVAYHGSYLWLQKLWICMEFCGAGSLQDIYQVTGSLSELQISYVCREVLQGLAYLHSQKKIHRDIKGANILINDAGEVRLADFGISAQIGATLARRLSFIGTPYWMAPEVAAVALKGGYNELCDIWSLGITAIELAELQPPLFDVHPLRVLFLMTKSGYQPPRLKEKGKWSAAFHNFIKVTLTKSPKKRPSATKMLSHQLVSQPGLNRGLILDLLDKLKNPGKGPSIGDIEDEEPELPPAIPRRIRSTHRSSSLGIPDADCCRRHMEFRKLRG

**Q.** Which IC50 does the source give for `N#Cc1ccncc1-c1ccc(NC(=O)c2ccc(=O)n(-c3c(F)cccc3F)n2)c(N2CCC(N)(CO)CC2)c1` [Example 352, N-(2-(4-amino-4-(hydroxymethyl)piperidin-1-yl)-4-(4-cyanopyridin-3-yl)phenyl)-1-(2,6-difluorophenyl)-6-oxo-1,6-dihydropyridazine-3-carboxamide] here?
**A.** The IC50 was less than 100 nM.

**Q.** With `N#Cc1ccncc1-c1ccc(NC(=O)c2ccc(=O)n(-c3c(F)cccc3F)n2)c(N2CCC(F)(F)[C@@H](N)C2)c1` [Example 357, (S)-N-(2-(3-amino-4,4-difluoropiperidin-1-yl)-4-(4-cyanopyridin-3-yl)phenyl)-1-(2,6-difluorophenyl)-6-oxo-1,6-dihydropyridazine-3-carboxamide] as the compound, how does the IC50 read?
**A.** The IC50 was less than 100 nM.

**Q.** `N#Cc1ccncc1-c1ccc(NC(=O)c2ccc(=O)n(-c3c(F)cccc3F)n2)c(N2CCC(NCCO)CC2)c1` [Example 360, N-(4-(4-cyanopyridin-3-yl)-2-(4-((2-hydroxyethyl)amino)piperidin-1-yl)phenyl)-1-(2,6-difluorophenyl)-6-oxo-1,6-dihydropyridazine-3-carboxamide] was tested. Which IC50 did it give?
**A.** The IC50 was less than 100 nM.

**Q.** For `N#Cc1ccncc1-c1ccc(NC(=O)c2ccc(=O)n(-c3c(F)cccc3Cl)n2)c(N2C[C@@H](N)C[C@H]2CO)c1` [Example 361, N-(2-((2S,4S)-4-amino-2-(hydroxymethyl)pyrrolidin-1-yl)-4-(4-cyanopyridin-3-yl)phenyl)-1-(2-chloro-6-fluorophenyl)-6-oxo-1,6-dihydropyridazine-3-carboxamide], which IC50 is on record?
**A.** Its IC50 is less than 100 nM.
